Measured values: article PMC8717366, “Synthesis and Pharmacological Characterization of Visabron, a Backbone Cyclic Peptide Dual Antagonist of α4β1 (VLA-4)/α9β1 Integrin for Therapy of Multiple Sclerosis” (JACS Au, 2021)
Read-outs that look alike come from different tables or passages of the source. Numbered stars: 1 amine (or outer) side, 2 acyl side, 3 side chain; on linkers, the order of the positions; unused ones are H or OH. Bridge positions count the residues as written; N and C are the ends. Square brackets hold non-standard residues; d marks the D form. Peptide text beside a SMILES is read from it. N(6-aminohexyl)Gly = O=C(CN(CCCCCCN[*:3])[*:1])[*:2]; CO = O=C([*:1])[*:2]; Nlys = NCCCCNCC(=O)O

Legend:
α1β1-collagen IV = target: T1, α1β1-collagen IV (Homo sapiens, UniProt P05556+P56199); assay: Adhesion of α1-K562 overexpressor cells to immobilized collagen IV; assay type: cell-based
T1 construct: expressed in transfected cells; host or cells: K562 transfected with α1 integrin (gift of Dr. M. Hemler)
T1 sequence (P56199 29-1179): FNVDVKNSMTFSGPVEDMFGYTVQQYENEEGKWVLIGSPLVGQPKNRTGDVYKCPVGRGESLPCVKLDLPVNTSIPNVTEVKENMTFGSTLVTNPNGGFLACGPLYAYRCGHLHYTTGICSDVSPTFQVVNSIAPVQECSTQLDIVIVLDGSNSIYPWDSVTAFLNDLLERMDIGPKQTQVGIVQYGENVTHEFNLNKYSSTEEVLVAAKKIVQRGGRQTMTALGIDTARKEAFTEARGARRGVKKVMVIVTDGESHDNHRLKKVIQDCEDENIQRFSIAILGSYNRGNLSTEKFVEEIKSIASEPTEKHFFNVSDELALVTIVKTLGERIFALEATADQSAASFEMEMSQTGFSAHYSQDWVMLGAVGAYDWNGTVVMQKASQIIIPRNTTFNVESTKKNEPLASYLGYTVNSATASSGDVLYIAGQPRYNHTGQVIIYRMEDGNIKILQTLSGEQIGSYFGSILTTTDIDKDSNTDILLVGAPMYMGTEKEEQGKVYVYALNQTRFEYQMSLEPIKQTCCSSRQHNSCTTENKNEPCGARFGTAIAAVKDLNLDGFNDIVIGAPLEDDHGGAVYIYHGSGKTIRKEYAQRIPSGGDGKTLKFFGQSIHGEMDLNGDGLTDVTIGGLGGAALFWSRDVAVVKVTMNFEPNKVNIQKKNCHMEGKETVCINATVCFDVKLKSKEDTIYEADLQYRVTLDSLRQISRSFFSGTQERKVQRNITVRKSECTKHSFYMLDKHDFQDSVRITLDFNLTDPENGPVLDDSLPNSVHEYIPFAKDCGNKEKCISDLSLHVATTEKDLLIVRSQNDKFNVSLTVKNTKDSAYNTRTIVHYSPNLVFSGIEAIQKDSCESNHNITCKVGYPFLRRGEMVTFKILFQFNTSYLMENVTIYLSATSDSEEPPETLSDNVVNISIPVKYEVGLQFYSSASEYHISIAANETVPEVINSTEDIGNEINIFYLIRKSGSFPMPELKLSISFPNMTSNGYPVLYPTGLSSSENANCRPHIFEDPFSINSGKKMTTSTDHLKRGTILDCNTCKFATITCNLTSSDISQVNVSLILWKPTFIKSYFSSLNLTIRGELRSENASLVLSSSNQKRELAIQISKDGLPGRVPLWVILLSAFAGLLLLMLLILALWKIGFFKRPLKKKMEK
T1 sequence (P05556 21-798): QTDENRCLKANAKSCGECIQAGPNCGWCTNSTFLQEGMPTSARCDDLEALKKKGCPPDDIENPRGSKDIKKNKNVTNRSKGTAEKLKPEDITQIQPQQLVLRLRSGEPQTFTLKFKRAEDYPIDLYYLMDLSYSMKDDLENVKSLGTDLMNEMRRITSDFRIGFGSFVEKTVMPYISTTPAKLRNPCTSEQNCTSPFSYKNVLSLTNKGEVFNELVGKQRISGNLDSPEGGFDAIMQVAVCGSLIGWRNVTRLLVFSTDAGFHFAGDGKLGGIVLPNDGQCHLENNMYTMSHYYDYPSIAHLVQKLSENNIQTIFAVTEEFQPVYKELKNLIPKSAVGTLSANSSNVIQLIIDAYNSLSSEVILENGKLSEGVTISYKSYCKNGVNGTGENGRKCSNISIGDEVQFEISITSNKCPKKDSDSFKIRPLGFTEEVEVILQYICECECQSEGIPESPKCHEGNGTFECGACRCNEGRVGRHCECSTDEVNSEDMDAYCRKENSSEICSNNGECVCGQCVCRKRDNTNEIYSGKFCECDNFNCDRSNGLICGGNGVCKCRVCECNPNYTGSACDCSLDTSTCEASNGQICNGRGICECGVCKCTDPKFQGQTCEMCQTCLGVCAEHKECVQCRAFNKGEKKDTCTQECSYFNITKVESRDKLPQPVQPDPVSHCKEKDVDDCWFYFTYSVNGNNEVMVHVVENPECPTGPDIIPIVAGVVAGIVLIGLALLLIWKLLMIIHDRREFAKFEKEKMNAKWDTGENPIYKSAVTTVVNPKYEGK
Method: (§1) Cell adhesion assay was carried out as previously described[47] with minor modifications. The day before the experiment, each well was coated with VCAM-1 (3 mg/mL) immobilized on the 96-well plate in PBS by overnight incubation at 4 °C. Thereafter, nonspecific binding was blocked by incubating the wells with 1% (w/v) bovine serum albumin (BSA) in Hank’s Balanced Salt Solution (HBSS) containing 5 mM MgCl2 at room temperature for 1 h before use. The cells were labeled by incubation with 12.5 μM 5-chloromethylfluorescein diacetate (CMFDA) in HBSS without 1% BSA at 37 °C for 30 min. The labeled cells were then centrifuged at 1000 rpm and washed twice with HBSS containing 1% BSA to remove excess CMFDA. Labeled cells (about 1 × 10^5 cells/well) were plated on each well in the presence or absence of visabrons and incubated at 37 °C for 60 min. Unbound cells were removed by washing the wells three times with 1% (w/v) BSA in HBSS, and bound cells were lysed by the addition of 0.5% Triton X-100 (diluted in DDW). The fluorescence in each well was quantified with a SPECTRAFluor Plus plate reader (Tecan), at λex = 485 nm and λem = 530 nm. To determine the number of adhered cells from the fluorescence values, a standard curve was generated by serial dilution of known numbers of CMFDA-labeled cells. […]
(§2) Table S6. TMLD- linear peptides inhibition of adhesion of integrin expressing cells to the respective immobilized ligands a a The cells were incubated for 30 min at 37 °C with the cells (1 x 105) in the 96 -well plate, previously covered with extracellular matrix ligand, in 100 µL of HBSS containing calcium and magnesium. After being washed with the same buffer, the adhered cells were lysed by Triton X-100, and the plate was read using Tecan spectrofluorimeter. The inhibitory dose 50% (IC 50) values represent ing mean ± standard deviatio ns (n=6) were calculated from dose response curves. bJurkat cells,VCAM -1; c α9-SW480 overexpressing cells, VCAM-1; d α1-K562 overexpressing cells, collagen IV ;e α2-K562 overexpressing cells, collagen I; f K562 wild type

α2β1-collagen I = target: T2, α2β1-collagen I (Homo sapiens, UniProt P05556+P17301); assay: Adhesion of α2-K562 overexpressor cells to immobilized collagen I; assay type: cell-based
T2 construct: expressed in transfected cells; host or cells: K562 transfected with α2 integrin (gift of Dr. M. Hemler)
Method: as §1, §2

α5β1-fibronectin = target: T3, α5β1-fibronectin (Homo sapiens, UniProt P05556+P08648); assay: Adhesion of wild-type K562 cells to immobilized fibronectin; assay type: cell-based
T3 construct: host or cells: K562 wild type
T3 sequence (P08648 42-894 limits assumed): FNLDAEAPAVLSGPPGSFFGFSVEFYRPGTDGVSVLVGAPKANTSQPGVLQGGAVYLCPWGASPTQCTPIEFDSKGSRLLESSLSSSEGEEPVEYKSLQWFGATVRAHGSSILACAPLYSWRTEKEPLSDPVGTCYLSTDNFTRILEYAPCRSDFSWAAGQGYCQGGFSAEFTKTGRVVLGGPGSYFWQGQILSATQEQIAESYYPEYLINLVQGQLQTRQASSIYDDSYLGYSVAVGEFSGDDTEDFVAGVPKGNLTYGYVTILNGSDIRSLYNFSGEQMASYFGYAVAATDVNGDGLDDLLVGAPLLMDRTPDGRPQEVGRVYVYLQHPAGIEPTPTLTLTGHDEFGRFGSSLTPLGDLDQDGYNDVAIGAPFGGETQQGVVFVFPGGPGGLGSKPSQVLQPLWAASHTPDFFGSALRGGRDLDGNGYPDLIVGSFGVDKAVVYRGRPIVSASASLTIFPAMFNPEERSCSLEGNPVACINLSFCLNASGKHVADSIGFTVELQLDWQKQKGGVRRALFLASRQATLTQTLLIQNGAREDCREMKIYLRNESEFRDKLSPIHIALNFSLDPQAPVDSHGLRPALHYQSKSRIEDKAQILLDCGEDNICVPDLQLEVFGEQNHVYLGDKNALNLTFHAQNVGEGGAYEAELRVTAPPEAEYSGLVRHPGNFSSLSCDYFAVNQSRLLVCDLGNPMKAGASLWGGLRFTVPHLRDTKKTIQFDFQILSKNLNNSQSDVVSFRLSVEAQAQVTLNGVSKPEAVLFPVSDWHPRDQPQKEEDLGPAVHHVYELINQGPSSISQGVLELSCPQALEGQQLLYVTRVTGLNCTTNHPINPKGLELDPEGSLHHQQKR
T3 sequence (P08648 895-1049 limits assumed): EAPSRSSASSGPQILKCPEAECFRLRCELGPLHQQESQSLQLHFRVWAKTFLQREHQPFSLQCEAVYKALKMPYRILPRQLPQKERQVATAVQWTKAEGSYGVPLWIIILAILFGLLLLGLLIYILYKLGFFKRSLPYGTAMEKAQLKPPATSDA
T3 sequence (P05556 21-798): as the sequence (P05556 21-798) above
Method: as §1, §2

[1] = target: T4, α4β1 (Jurkat lymphocytes-VCAM-1) (Homo sapiens, UniProt P05556+P13612); assay: Adhesion of Jurkat lymphocytes to immobilized VCAM-1; assay type: cell-based
T4 construct: host or cells: Jurkat (untreated or TNFα-treated)
T4 sequence (P13612 34-1032): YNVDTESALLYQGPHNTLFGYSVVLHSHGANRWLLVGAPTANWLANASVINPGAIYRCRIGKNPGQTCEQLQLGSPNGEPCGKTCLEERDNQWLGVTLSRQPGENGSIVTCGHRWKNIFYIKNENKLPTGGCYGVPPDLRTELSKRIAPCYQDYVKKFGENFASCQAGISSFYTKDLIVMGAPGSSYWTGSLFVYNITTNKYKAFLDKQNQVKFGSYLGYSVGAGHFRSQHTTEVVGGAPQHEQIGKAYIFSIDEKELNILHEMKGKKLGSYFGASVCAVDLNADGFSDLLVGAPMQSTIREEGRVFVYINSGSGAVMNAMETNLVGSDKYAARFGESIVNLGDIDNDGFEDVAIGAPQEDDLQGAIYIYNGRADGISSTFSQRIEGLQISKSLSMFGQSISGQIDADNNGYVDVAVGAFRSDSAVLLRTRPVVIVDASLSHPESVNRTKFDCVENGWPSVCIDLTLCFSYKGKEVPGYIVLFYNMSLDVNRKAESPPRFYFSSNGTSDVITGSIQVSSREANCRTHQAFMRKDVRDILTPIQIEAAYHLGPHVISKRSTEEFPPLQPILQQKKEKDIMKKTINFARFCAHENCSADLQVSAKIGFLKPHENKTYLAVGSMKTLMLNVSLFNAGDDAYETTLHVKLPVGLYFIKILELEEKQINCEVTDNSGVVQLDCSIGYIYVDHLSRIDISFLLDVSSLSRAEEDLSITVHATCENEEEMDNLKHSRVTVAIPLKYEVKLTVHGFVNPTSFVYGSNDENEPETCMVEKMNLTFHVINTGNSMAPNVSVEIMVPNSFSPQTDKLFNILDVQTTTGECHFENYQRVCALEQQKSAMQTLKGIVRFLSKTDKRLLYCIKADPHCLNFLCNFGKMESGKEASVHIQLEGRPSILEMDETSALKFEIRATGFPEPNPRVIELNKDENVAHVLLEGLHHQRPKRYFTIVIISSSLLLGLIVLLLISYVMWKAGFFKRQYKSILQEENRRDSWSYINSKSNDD
T4 sequence (P05556 21-798): as the sequence (P05556 21-798) above
Method: as §1, §2

α9β1 = target: T5, α9β1 (Homo sapiens, UniProt P05556+Q13797); assay: Adhesion of α9-SW480 overexpressing cells to VCAM-1; assay type: cell-based; details: n=6, Table S6, read-out: IC50 α9β1 (linear peptides)
T5 construct: generated by transfection with full-length α9 expression plasmid pcDNAIneoa9; expressed in transfected cells; host or cells: SW480 transfected with pcDNAIneoa9
T5 sequence (Q13797 30-1035): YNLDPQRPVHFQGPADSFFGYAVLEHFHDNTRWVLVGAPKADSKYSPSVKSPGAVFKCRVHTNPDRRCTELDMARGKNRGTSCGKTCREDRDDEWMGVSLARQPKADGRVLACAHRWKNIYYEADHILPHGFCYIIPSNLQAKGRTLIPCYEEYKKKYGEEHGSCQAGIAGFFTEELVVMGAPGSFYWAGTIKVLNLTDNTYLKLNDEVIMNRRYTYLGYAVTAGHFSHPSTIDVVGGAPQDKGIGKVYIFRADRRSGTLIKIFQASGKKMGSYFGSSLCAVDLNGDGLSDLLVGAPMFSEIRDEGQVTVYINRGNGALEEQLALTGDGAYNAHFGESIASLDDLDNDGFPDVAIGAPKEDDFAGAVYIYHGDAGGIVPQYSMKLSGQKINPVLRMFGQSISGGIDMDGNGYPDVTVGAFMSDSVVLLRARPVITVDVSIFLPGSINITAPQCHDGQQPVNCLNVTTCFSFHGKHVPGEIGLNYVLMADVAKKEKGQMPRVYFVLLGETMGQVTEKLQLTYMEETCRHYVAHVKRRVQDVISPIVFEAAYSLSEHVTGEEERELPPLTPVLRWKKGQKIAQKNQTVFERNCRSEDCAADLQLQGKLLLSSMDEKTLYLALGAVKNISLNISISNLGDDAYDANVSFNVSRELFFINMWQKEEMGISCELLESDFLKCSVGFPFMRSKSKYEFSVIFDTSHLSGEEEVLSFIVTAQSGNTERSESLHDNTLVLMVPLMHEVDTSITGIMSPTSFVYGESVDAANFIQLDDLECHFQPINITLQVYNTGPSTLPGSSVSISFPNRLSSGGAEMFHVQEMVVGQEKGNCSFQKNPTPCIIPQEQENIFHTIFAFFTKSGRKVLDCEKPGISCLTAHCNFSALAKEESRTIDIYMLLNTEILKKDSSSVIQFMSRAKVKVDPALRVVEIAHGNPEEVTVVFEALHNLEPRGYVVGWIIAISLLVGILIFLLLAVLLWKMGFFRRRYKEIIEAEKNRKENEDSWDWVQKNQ
T5 sequence (P05556 21-798): as the sequence (P05556 21-798) above
Method: as §2, with “type […]” for “type”
(1 picture or pasted object on this page, not shown here)

α4β1-VCAM-1 Fc chimera = target: T6, α4β1-VCAM-1 Fc chimera (Homo sapiens, UniProt P05556+P13612); assay: ELISA solid-phase ligand-receptor binding, integrin α4β1 to VCAM-1 Fc chimera
T6 construct: purchased R&D Systems Co (Minneapolis, MN)
Method: (§3) Recombinant human VCAM-1 and MadCAM-1 (3 mg/mL in phosphate-buffered saline containing divalent cations), were immobilized on the wells of a 96-well ELISA plate (Dynatech Immulon) by overnight incubation at 4 °C. After washing with HBSST (Hanks’ Balanced Salt solution containing calcium and magnesium and 0.05% Tween-20) the plates were blocked with 5% BSA in HBSST by incubation at 37 °C for 1 h. The plates were washed with HBSST, and recombinant human integrin α4β1 or α4β7 (3 mg/mL) was added in the presence or absence of competitor cyclic peptides, disintegrins, or monoclonal anti-integrin antibodies dissolved in HBSS containing 1% BSA. The plates were thereafter incubated at 30 °C for 3 h, as time-binding had reached a plateau, and then washed 3 times with HBSST. Bound integrins were quantitated using primary anti-integrin polyclonal and monoclonal antibodies at a concentration of 0.5 mg/mL in HBSST containing 1% BSA, and incubated at 37 °C for 1 h. The plates were washed 3 times with HBSST and secondary antibodies- alkaline phosphatase (AP) conjugated (Sigma Co.) were added at dilution 1:1000 and incubated at 37 °C for 1 h. Thereafter, the plates were washed 3 times with HBSST and twice with HBSS and the alkaline phosphatase substrate 4-nitrophenyl phosphate was added to the wells for 30 min. The plates were read using Tecan Spectrophotometer at 405 nm. The level of nonspecific binding was measured in each experiment by determining the level of binding to wells coated with BSA alone.

α4β7-MAdCAM-1 Fc chimera = target: T7, α4β7-MAdCAM-1 Fc chimera (Homo sapiens, UniProt P13612+P26010); assay: ELISA solid-phase ligand-receptor binding, integrin α4β7 to MAdCAM-1 Fc chimera
T7 construct: purchased R&D Systems Co (Minneapolis, MN)
Method: as §3

α9β1-VCAM-1 Fc chimera = α9β1-VCAM-1 Fc chimera (Homo sapiens, UniProt P05556+Q13797); assay: ELISA binding assay, α9β1 to VCAM-1 Fc chimera
[2] = system: U937 macrophages-VCAM-1 (α4β1, αMβ2, α3β1, α6β1); assay: Adhesion of U937 macrophages to immobilized VCAM-1; assay type: cell-based, human
Method: Cell adhesion assay was carried out as previously described[47] with minor modifications. The day before the experiment, each well was coated with VCAM-1 (3 mg/mL) immobilized on the 96-well plate in PBS by overnight incubation at 4 °C. Thereafter, nonspecific binding was blocked by incubating the wells with 1% (w/v) bovine serum albumin (BSA) in Hank’s Balanced Salt Solution (HBSS) containing 5 mM MgCl2 at room temperature for 1 h before use. The cells were labeled by incubation with 12.5 μM 5-chloromethylfluorescein diacetate (CMFDA) in HBSS without 1% BSA at 37 °C for 30 min. The labeled cells were then centrifuged at 1000 rpm and washed twice with HBSS containing 1% BSA to remove excess CMFDA. Labeled cells (about 1 × 10^5 cells/well) were plated on each well in the presence or absence of visabrons and incubated at 37 °C for 60 min. Unbound cells were removed by washing the wells three times with 1% (w/v) BSA in HBSS, and bound cells were lysed by the addition of 0.5% Triton X-100 (diluted in DDW). The fluorescence in each well was quantified with a SPECTRAFluor Plus plate reader (Tecan), at λex = 485 nm and λem = 530 nm. To determine the number of adhered cells from the fluorescence values, a standard curve was generated by serial dilution of known numbers of CMFDA-labeled cells.

[3] = α1-K562 overexpressing cells, collagen IV, n=6, Table S6, read-out: IC50 α1β1 (linear peptides)
[4] = α2-K562 overexpressing cells, collagen I, n=6, Table S6, read-out: IC50 α2β1 (linear peptides)
[5] = K562 wild type cells, fibronectin, n=6, Table S6, read-out: IC50 α5β1 (linear peptides)
[6] = Jurkat cells, VCAM-1, n=6, Table S6, read-out: IC50 α4β1 (linear peptides)
[7] = α1-K562 overexpressed cells, 30 min at 37 °C, read-out: IC50 α1β1-collagen IV
[8] = α2-K562 overexpressed cells, 30 min at 37 °C, read-out: IC50 α2β1-collagen I
[9] = wild-type K562 (α5β1), 30 min at 37 °C, read-out: IC50 α5β1-fibronectin
[10] = Jurkat treated with TNF-α (10 ng/mL) for 24 h, read-out: IC50 Jurkat lymphocytes-VACAM-1 TNFα
[11] = untreated Jurkat lymphocytes (α4β1), read-out: IC50 Jurkat lymphocytes-VACAM-1 control

SMILES | IC50 (α1β1-collagen IV; [3]) [µM] | IC50 (α2β1-collagen I; [4]) [µM] | IC50 (α5β1-fibronectin; [5]) [µM] | IC50 [1, 6] [µM] | IC50 (α9β1) [µM] | IC50 (α1β1-collagen IV; [7]) [µM] | IC50 (α2β1-collagen I; [8]) [µM] | IC50 (α5β1-fibronectin; [9]) [µM] | IC50 (α4β1-VCAM-1 Fc chimera) [µM] | IC50 (α4β7-MAdCAM-1 Fc chimera) [µM] | IC50 (α9β1-VCAM-1 Fc chimera) [µM] | IC50 [1, 10] [µM] | IC50 [1, 11] [µM] | IC50 ([2]; U937 treated with PMA (10 ng/mL) for 24 h, read-out: IC50 U937 macrophages-VCAM-1 PMA) [µM] | IC50 ([2]; untreated U937, read-out: IC50 U937 macrophages-VCAM-1 control) [µM]
CSCC[C@H](NC(=O)[C@@H](NC(=O)[C@H](CCCNC(=N)N)NC(=O)[C@H](CCCCN)NC(=O)[C@@H](N)CS)[C@@H](C)O)C(=O)N[C@@H](CC(C)C)C(=O)N[C@@H](CC(=O)O)C(=O)NCC(=O)N[C@@H](CC(C)C)C(=O)N[C@@H](CC(N)=O)C(=O)N[C@@H](CC(=O)O)C(=O)N[C@@H](Cc1ccc(O)cc1)C(=O)N[C@@H](CS)C(N)=O [sequence 3, CKRTMLDGLNDYC] (H-CKRTMLDGLNDYC-NH2; N-terminus and C-terminus assumed) | > 10000 | > 10000 | > 10000 | 1450 ± 105 | 1250 ± 95 | – | – | – | – | – | – | – | – | – | –
CSCC[C@@H]1NC(=O)[C@H]([C@@H](C)O)NC(=O)CN(C(=O)[C@@H](N)CCCCN)CCCCCCNC(=O)NCCCCCCN(CC(=O)N[C@@H](CC(C)C)C(N)=O)C(=O)[C@H](CC(=O)O)NC(=O)[C@H](CC(C)C)NC1=O [visabron c (6–6)] (H-K[N(6-aminohexyl)Gly]TMLD[N(6-aminohexyl)Gly]L-NH2; linker 2-7 via CO) | – | – | – | – | – | > 10000 | > 10000 | > 10000 | 0.7 | > 500 | 0.9 | 4 | 5 | 15 | 20
CSCC[C@H](NC(=O)[C@H](C)NC(=O)[C@H](CCCNC(=N)N)NC(=O)[C@H](CCCCN)NC(=O)[C@@H](N)CS)C(=O)N[C@@H](CC(C)C)C(=O)N[C@@H](CC(=O)O)C(=O)NCC(=O)N[C@@H](CC(C)C)C(=O)N[C@@H](CC(N)=O)C(=O)N[C@@H](CC(=O)O)C(=O)N[C@@H](Cc1ccc(O)cc1)C(=O)N[C@@H](CS)C(N)=O [sequence 4, CKRAMLDGLNDYC] (H-CKRAMLDGLNDYC-NH2; N-terminus and C-terminus assumed) | > 10000 | > 10000 | > 10000 | 3910 ± 80 | 2840 ± 115 | – | – | – | – | – | – | – | – | – | –
CSCC[C@H](NC(=O)[C@@H](NC(=O)[C@H](CCCNC(=N)N)NC(=O)[C@@H](N)CCCCN)[C@@H](C)O)C(=O)N[C@@H](CC(C)C)C(=O)N[C@@H](CC(=O)O)C(=O)NCC(=O)N[C@@H](CC(C)C)C(N)=O [sequence 5, KRTMLDGL] (H-KRTMLDGL-NH2; N-terminus and C-terminus assumed) | > 10000 | > 10000 | > 10000 | 1310 ± 95 | 1260 ± 80 | – | – | – | – | – | – | – | – | – | –
CSCC[C@@H]1NC(=O)[C@H]([C@@H](C)O)NC(=O)CN(C(=O)[C@@H](N)CCCNC(=N)N)CCCCNC(=O)NCCCCN(CC(=O)N[C@@H](CC(C)C)C(N)=O)C(=O)[C@H](CC(=O)O)NC(=O)[C@H](CC(C)C)NC1=O [Arg-visabron c (4–4)] (H-R[Nlys]TMLD[Nlys]L-NH2; linker 2-7 via CO; N-terminus assumed) | – | – | – | – | – | > 10000 | > 10000 | > 10000 | > 10000 | – | > 10000 | > 5000 | > 5000 | – | –
